Measurements as given in patent publication US20240391931A1 (Bristol-Myers Squibb Company, priority 2021, published 2024).

Key:
EGFR = EGFR (Homo sapiens, UniProt P00533); test: EGFR signaling (pEGFR Tyr1068/total EGFR MSD) in A431 cells; assay type: cell-based; design: endogenous in cells; host or cells: A431, N87; conditions: for EC50: A431 cells, read-out: A431 pEGFR EC50; for Selectivity A431 EC50/BT474 EC50: ratio A431 pEGFR EC50 to BT474 pHER2 EC50; for Selectivity A431 EC50/HEKYVMA EC50: ratio A431 pEGFR EC50 to HEK YVMA pHER2 EC50
Summary of the method: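 Serum-starved A431 cells were pretreated 1.5 h in 1% FBS with compound (0.005–10 μM, 0.1% DMSO), then stimulated with 100 ng/mL human EGF for 10 min. Lysate pEGFR Tyr1068 was measured by MSD and normalized to total EGFR as % DMSO control; EC50 from variable-slope sigmoidal fit.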

HER2YVMA = HER2YVMA (Homo sapiens, UniProt P04626, INS775YVMA); test: HER2 signaling (pHER2) in Hek293-HER2YVMA cells; assay type: cell-based; design: expressed in transfected cells; host or cells: HEK293 (pool), Ba/F3 (clones), BEAS2B (clones); lentiviral vector pCDH-CMV-MCS-EF1-Neo; conditions: 1.5 hr compound, 1% FBS, read-out: HEKYVMA pHER2 EC50
Summary of the method: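 Lentivirally transduced HER2YVMA lines (HEK293 pool; BEAS2B clone) treated 1.5 h at 37 °C in 1% FBS medium with compound at 0.0005–1.1 μM. Lysates read by MSD immunoassay for pHER2 (Tyr1248) normalized to total HER2, as % DMSO control; EC50 from variable-slope sigmoidal fit.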

Sequence of EGFR (P00533 25-1210): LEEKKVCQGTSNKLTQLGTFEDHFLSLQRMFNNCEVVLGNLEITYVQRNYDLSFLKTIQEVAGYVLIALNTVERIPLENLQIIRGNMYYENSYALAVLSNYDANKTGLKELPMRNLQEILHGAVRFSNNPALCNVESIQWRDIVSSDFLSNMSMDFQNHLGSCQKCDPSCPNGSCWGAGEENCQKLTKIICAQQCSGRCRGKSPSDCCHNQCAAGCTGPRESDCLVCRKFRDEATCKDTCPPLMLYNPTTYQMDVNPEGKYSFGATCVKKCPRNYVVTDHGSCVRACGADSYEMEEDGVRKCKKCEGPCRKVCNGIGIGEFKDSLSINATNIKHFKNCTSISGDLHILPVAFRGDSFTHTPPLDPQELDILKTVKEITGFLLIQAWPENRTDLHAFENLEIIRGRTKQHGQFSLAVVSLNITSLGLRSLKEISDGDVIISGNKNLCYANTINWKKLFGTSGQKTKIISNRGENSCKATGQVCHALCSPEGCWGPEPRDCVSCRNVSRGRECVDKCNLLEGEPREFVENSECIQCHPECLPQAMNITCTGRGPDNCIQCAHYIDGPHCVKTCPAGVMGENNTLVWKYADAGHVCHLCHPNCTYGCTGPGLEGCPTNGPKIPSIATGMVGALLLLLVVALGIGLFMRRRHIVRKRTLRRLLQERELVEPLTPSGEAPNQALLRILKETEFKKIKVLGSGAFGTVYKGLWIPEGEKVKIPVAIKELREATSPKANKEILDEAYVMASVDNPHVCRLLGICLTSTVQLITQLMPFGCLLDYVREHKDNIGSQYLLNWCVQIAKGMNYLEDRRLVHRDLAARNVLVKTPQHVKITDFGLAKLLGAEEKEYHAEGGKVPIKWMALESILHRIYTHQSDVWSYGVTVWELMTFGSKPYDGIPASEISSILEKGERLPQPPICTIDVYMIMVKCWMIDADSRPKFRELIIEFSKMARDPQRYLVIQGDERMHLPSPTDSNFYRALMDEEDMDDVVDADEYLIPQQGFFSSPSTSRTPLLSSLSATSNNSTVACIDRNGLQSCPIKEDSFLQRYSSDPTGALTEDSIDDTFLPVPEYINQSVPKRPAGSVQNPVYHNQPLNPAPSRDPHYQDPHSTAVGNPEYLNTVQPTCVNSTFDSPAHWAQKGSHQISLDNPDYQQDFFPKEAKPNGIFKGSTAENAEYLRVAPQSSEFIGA
Sequence of HER2YVMA (P04626 with tags, fused parts or gaps INS775YVMA): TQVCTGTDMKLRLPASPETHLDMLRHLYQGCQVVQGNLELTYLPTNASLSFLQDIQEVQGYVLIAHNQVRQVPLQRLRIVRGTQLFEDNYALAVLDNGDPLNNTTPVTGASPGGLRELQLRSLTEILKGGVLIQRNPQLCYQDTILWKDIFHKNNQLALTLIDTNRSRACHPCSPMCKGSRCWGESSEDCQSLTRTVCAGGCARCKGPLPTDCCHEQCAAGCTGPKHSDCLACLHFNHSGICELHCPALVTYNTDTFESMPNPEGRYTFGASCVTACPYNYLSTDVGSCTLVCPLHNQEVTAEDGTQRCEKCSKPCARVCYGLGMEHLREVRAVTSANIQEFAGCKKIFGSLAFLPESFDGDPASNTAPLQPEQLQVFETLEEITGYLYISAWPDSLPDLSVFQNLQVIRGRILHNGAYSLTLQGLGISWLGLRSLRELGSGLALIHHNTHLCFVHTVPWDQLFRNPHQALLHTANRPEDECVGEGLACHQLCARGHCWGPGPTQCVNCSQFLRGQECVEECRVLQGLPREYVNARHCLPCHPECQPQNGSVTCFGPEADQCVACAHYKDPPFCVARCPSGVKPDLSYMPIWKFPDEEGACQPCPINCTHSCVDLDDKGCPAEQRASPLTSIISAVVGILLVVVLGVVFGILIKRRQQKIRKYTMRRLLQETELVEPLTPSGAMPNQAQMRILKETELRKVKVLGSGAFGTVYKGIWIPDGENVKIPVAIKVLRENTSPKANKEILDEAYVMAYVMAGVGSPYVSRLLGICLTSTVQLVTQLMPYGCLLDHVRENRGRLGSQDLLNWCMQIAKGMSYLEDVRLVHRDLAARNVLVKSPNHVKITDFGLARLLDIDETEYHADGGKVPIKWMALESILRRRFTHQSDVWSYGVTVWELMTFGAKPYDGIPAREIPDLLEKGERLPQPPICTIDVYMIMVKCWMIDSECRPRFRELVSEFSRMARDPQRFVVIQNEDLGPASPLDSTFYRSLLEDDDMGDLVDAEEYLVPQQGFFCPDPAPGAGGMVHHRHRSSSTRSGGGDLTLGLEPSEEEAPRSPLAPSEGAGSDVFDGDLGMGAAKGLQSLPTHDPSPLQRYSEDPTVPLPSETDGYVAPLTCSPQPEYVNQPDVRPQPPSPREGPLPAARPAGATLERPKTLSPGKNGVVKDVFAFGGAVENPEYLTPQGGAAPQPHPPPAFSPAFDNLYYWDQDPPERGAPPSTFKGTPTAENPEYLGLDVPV

| SMILES | EC50 (EGFR) [nM] | Selectivity A431 EC50/BT474 EC50 (EGFR) | Selectivity A431 EC50/HEKYVMA EC50 (EGFR) | EC50 (HER2YVMA) [nM] |
| --- | --- | --- | --- | --- |
| Cc1ccc(Oc2ccc(Nc3ncnc4sc5c(c34)CCN(C(=O)/C=C/CNC3CCC3)C5)cc2C)cn1 [Compound 54] | 100 to 1000 | D (D: ≥ 5 and < 10) | D (D: ≥ 5 and < 10) | < 100 |
| C=CC(=O)N1CCc2c(sc3ncnc(Nc4ccc(Oc5ccc6ncnn6c5)c(Cl)c4)c23)C1 [Compound 4, 1-(4-((4-([1,2,4]triazolo[1,5-a]pyridin-6-yloxy)-3-chlorophenyl)amino)-5,8-dihydropyrido[4′,3′:4,5]thieno[2,3-d]pyrimidin-7(6H)-yl)prop-2-en-1-one] | 100 to 1000 | B (B: ≥ 20 and < 100) | A (A: ≥100) | < 100 |
| Cc1cc(Nc2ncnc3sc4c(c23)CCN(C(=O)/C=C/CN2CC3CC(C3)C2)C4)ccc1Oc1ccc2ncnn2c1 [Compound 82] | 100 to 1000 | C (C: ≥ 10 and < 20) | C (C: ≥ 10 and < 20) | < 100 |
| COCCN1CCN(C/C=C/C(=O)N2CCc3c(sc4ncnc(Nc5ccc(Oc6ccc(C)nc6)c(C)c5)c34)C2)CC1 [Compound 59] | 100 to 1000 | B (B: ≥ 20 and < 100) | C (C: ≥ 10 and < 20) | < 100 |
| Cc1ccc(Oc2ccc(Nc3ncnc4sc5c(c34)CCN(C(=O)/C=C/CN3CC=CCC3)C5)cc2C)cn1 [Compound 55] | 100 to 1000 | B (B: ≥ 20 and < 100) | B (B: ≥ 20 and < 100) | < 100 |
| Cc1ccc(Oc2ccc(Nc3ncnc4sc5c(c34)CCN(C(=O)/C=C/CN3CC(O)CO3)C5)cc2C)cn1 (stereo not shown) [Compound 43] | > 10000 | B (B: ≥ 20 and < 100) | C (C: ≥ 10 and < 20) | 350 to 1000 |
| CC(=O)N1CCN(C/C=C/C(=O)N2CCc3c(sc4ncnc(Nc5ccc(Oc6ccc(C)nc6)c(C)c5)c34)C2)CC1 [Compound 51] | 1000 to 10000 | C (C: ≥ 10 and < 20) | E (E: >1 and < 5) | 100 to 350 |
| Cc1ccc(Oc2ccc(Nc3ncnc4sc5c(c34)CCN(C(=O)/C=C/CN3CC4(C3)CS(=O)(=O)C4)C5)cc2C)cn1 [Compound 57] | < 100 | D (D: ≥ 5 and < 10) | D (D: ≥ 5 and < 10) | < 100 |
| Cc1ccc(Oc2ccc(Nc3ncnc4sc5c(c34)CCN(C(=O)/C=C/CNC3CCOC3)C5)cc2C)cn1 (stereo not shown) [Compound 47] | 100 to 1000 | C (C: ≥ 10 and < 20) | C (C: ≥ 10 and < 20) | < 100 |
| Cc1ccc(Oc2ccc(Nc3ncnc4sc5c(c34)CCN(C(=O)/C=C/CNC3COC3)C5)cc2C)cn1 [Compound 38] | 100 to 1000 | C (C: ≥ 10 and < 20) | D (D: ≥ 5 and < 10) | < 100 |
| Cc1ccc(Oc2ccc(Nc3ncnc4sc5c(c34)CCN(C(=O)/C=C/CN3CCN4C(=O)CCC4C3)C5)cc2C)cn1 (stereo not shown) [Compound 58] | 1000 to 10000 | C (C: ≥ 10 and < 20) | D (D: ≥ 5 and < 10) | 350 to 1000 |
| Cc1ccc(Oc2ccc(Nc3ncnc4sc5c(c34)CCN(C(=O)/C=C/CNCc3cc(C)n[nH]3)C5)cc2C)cn1 [Compound 49] | 100 to 1000 | B (B: ≥ 20 and < 100) | D (D: ≥ 5 and < 10) | < 100 |
| Cc1ccc(Oc2ccc(Nc3ncnc4sc5c(c34)CCN(C(=O)/C=C/CN3CC4C(CO)C4C3)C5)cc2C)cn1 (stereo not shown) [Compound 34] | 100 to 1000 | C (C: ≥ 10 and < 20) | E (E: >1 and < 5) | < 100 |
| Cc1ccc(Oc2ccc(Nc3ncnc4sc5c(c34)CCN(C(=O)/C=C/CNCCO)C5)cc2C)cn1 [Compound 65] | 100 to 1000 | D (D: ≥ 5 and < 10) | E (E: >1 and < 5) | < 100 |
| Cc1ccc(Oc2ccc(Nc3ncnc4sc5c(c34)CCN(C(=O)/C=C/CN3CC4CC3CO4)C5)cc2C)cn1 (stereo not shown) [Compound 26] | < 100 | D (D: ≥ 5 and < 10) | D (D: ≥ 5 and < 10) | < 100 |
| Cc1ccc(Oc2ccc(Nc3ncnc4sc5c(c34)CCN(C(=O)/C=C/CN[C@H]3CC[C@H](OC4CC4)CC3)C5)cc2C)cn1 [Compound 68] | < 100 | D (D: ≥ 5 and < 10) | E (E: >1 and < 5) | < 100 |

More lines, now with the values ahead:

| EC50 (EGFR) [nM] | Selectivity A431 EC50/BT474 EC50 (EGFR) | Selectivity A431 EC50/HEKYVMA EC50 (EGFR) | EC50 (HER2YVMA) [nM] | SMILES |
| --- | --- | --- | --- | --- |
| < 100 | B (B: ≥ 20 and < 100) | D (D: ≥ 5 and < 10) | < 100 | O=C(/C=C/CN1CC2CC1CO2)N1CCc2c(sc3ncnc(Nc4ccc(Oc5ccc6ncnn6c5)c(Cl)c4)c23)C1 (stereo not shown) [Compound 87] |
| < 100 | C (C: ≥ 10 and < 20) | C (C: ≥ 10 and < 20) | < 100 | O=C(/C=C/CN1CC2CCC(C2)C1)N1CCc2c(sc3ncnc(Nc4ccc(Oc5ccc6ncnn6c5)c(Cl)c4)c23)C1 [Compound 88] |
| 100 to 1000 | B (B: ≥ 20 and < 100) | C (C: ≥ 10 and < 20) | < 100 | Cc1ccc(Oc2ccc(Nc3ncnc4sc5c(c34)C(C)CN(C(=O)C=CCN(C)C)C5)cc2C)cn1 (single isomer, unassigned) [Compound 106] |
| 100 to 1000 | B (B: ≥ 20 and < 100) | C (C: ≥ 10 and < 20) | < 100 | Cc1ccc(Oc2ccc(Nc3ncnc4sc5c(c34)CCN(C(=O)/C=C/CN(C)C)CC5)cc2C)cn1 [Compound 100, (E)-4-(dimethylamino)-1-(4-((3-methyl-4-((6-methylpyridin-3-yl)oxy)phenyl)amino)-8,9-dihydro-5H-pyrimido[5′,4′:4,5]thieno[2,3-d]azepin-7(6H)-yl)but-2-en-1-one] |
| 100 to 1000 | B (B: ≥ 20 and < 100) | C (C: ≥ 10 and < 20) | < 100 | Cc1cc(Nc2ncnc3sc4c(c23)CCN(C(=O)/C=C/CN2CC3C(CO)C3C2)C4)ccc1Oc1ccc2ncnn2c1 (stereo not shown) [Compound 81] |
| < 100 | D (D: ≥ 5 and < 10) | E (E: >1 and < 5) | < 100 | Cc1ccc(Oc2ccc(Nc3ncnc4sc5c(c34)CCN(C(=O)/C=C/CNC34CCC(C#N)(CC3)CC4)C5)cc2C)cn1 [Compound 72] |
| 100 to 1000 | D (D: ≥ 5 and < 10) | D (D: ≥ 5 and < 10) | < 100 | Cc1ccc(Oc2ccc(Nc3ncnc4sc5c(c34)CCN(C(=O)/C=C/CN3CCC(O)C3)C5)cc2C)cn1 (stereo not shown) [Compound 74] |
| 100 to 1000 | B (B: ≥ 20 and < 100) | B (B: ≥ 20 and < 100) | < 100 | Cc1ccc(Oc2ccc(Nc3ncnc4sc5c(c34)CN(C(=O)/C=C/CN(C)C)C5)cc2C)cn1 [Compound 99, (E)-4-(dimethylamino)-1-(4-((3-methyl-4-((6-methylpyridin-3-yl)oxy)phenyl)amino)-5,7-dihydro-6H-pyrrolo[3′,4′:4,5]thieno[2,3-d]pyrimidin-6-yl)but-2-en-1-one] |
| < 100 | D (D: ≥ 5 and < 10) | E (E: >1 and < 5) | < 100 | Cc1ccc(Oc2ccc(Nc3ncnc4sc5c(c34)CCN(C(=O)/C=C/CN[C@H]3CC[C@H](OCC(F)(F)F)CC3)C5)cc2C)cn1 [Compound 70] |
| 1000 to 10000 | B (B: ≥ 20 and < 100) | D (D: ≥ 5 and < 10) | 100 to 350 | Cc1cc(Nc2ncnc3sc4c(c23)CCN(C(=O)/C=C/CN2CC3CC2CO3)C4)ccc1Oc1ccc2ncnn2c1 (stereo not shown) [Compound 77] |
| 100 to 1000 | C (C: ≥ 10 and < 20) | C (C: ≥ 10 and < 20) | < 100 | Cc1ccc(Oc2ccc(Nc3ncnc4sc5c(c34)CCCN(C(=O)/C=C/CN(C)C)C5)cc2C)cn1 [Compound 101, (E)-4-(Dimethylamino)-1-(4-((3-methyl-4-((6-methylpyridin-3-yl)oxy)phenyl)amino)-6,7-dihydro-5H-pyrimido[5′,4′:4,5]thieno[2,3-c]azepin-8(9H)-yl)but-2-en-1-one] |
| 100 to 1000 | C (C: ≥ 10 and < 20) | E (E: >1 and < 5) | < 100 | C=CC(=O)N1CCc2[nH]c3ncnc(Nc4ccc(Oc5ccc(C)nc5)c(C)c4)c3c2C1 [Compound 94, 1-(4-((3-methyl-4-((6-methylpyridin-3-yl)oxy)phenyl)amino)-7,8-dihydro-5H-pyrido[3′,4′:4,5]pyrrolo[2,3-d]pyrimidin-6(9H)-yl)prop-2-en-1-one] |
